Experimental findings from ChEMBL document CHEMBL4819141, “Ruthenium(II)- and Palladium(II)-catalyzed position-divergent CH oxygenations of arylated quinones: Identification of hydroxylated quinonoid compounds with potent trypanocidal activity” (Bioorg Med Chem, 2021) are described below.

The subject of the first test is Trypanosoma cruzi. Kind of test: Potency index, ratio of benznidazole IC50 to test compound IC50 for trypanocidal activity against Trypanosoma cruzi Y strain bloodstream trypomastigotes isolated from infected in Albino Swiss mouse assessed as lysis of parasite in presence of 5 % mouse blood incubated for 24 hrs by Neubauer chamber method. The class given is functional.
Take `Cc1ccc(C2=CC(=O)c3ccccc3C2=O)c(O)c1`: the “Ratio IC50” value was determined as 2.5.

For `O=C1C(c2ccc(C(F)(F)F)cc2)=CC(=O)c2c(O)cccc21`, the “Ratio IC50” value is reported as 4.5.

As for `Cc1ccc(C)c(C2=CC(=O)c3ccccc3C2=O)c1`, the “Ratio IC50” value is 2.

As to `CC(C)(C)c1ccc(C2=CC(=O)c3ccccc3C2=O)cc1`, the “Ratio IC50” value is reported as 4.

The next test deals with Trypanosoma cruzi. Nature of the test: Trypanocidal activity against Trypanosoma cruzi Y strain bloodstream trypomastigotes isolated from infected in Albino Swiss mouse assessed as lysis of parasite in presence of 5 % mouse blood incubated for 24 hrs by Neubauer chamber method. The class given is functional, organism-based.
By IC50 is commonly meant the concentration needed to halve the response being measured. In the case of `O=C1C=C(c2ccccc2)C(=O)c2ccccc21`, the IC50 is 96.8 µM.

As to `O=C1C(c2ccccc2)=CC(=O)c2c(O)cccc21`, the half-inhibitory concentration (IC50) stood at 115 µM.

For `Cc1ccc(C2=CC(=O)c3ccccc3C2=O)cc1`, the IC50 was determined as 185 µM.

Take `O=C1C=C(c2ccc(F)cc2)C(=O)c2ccccc21`: the IC50 was > 500 µM.

In the case of `O=C1C=C(c2ccc(Cl)cc2)C(=O)c2ccccc21`, the IC50 was > 1000 µM.

Regarding `O=C1C=C(c2ccc(C(F)(F)F)cc2)C(=O)c2ccccc21`, the half-maximal inhibitory concentration (IC50) stood at 335 µM.

Consider `Cc1cc(C)cc(C2=CC(=O)c3ccccc3C2=O)c1`, for which the IC50 is > 500 µM.

For `O=C1C(c2cccc(I)c2)=CC(=O)c2c(O)cccc21`, the IC50 amounted to 35.1 µM.

For the compound `O=C1C=C(c2ccccc2O)C(=O)c2ccccc21`, the half-maximal inhibitory concentration (IC50) turned out to be 163 µM.

Turning to `O=C1C=C(c2ccc(I)cc2)C(=O)c2ccccc21`, the IC50 is > 500 µM.

Regarding `O=C1C=C(c2ccccc2F)C(=O)c2ccccc21`, the half-maximal inhibitory concentration (IC50) worked out at 157 µM.

For the compound `O=C1C(c2ccc(F)cc2)=CC(=O)c2c(O)cccc21`, the half-maximal inhibitory concentration (IC50) worked out at 71.5 µM.

In the case of `Cc1ccc(C2=CC(=O)c3ccccc3C2=O)c(O)c1`, the 50% inhibitory concentration (IC50) amounted to 72.6 µM.

Turning to `O=C1C(c2ccc(Cl)cc2)=CC(=O)c2c(O)cccc21`, the IC50 is > 1000 µM.

`Cc1cccc(C2=CC(=O)c3c(O)cccc3C2=O)c1`: the IC50 turned out to be 95.4 µM.

On to `Cc1cccc(C2=CC(=O)c3ccccc3C2=O)c1`, for which the concentration for half-maximal inhibition (IC50) is 105 µM.

Turning to `O=C1C(c2ccc(C(F)(F)F)cc2)=CC(=O)c2c(O)cccc21`, the IC50 amounted to 22.8 µM.

Take `COc1ccc(C2=CC(=O)c3ccccc3C2=O)cc1`: the half-maximal inhibitory concentration (IC50) is 303 µM.

For `Cc1cc(C)cc(C2=CC(=O)c3c(O)cccc3C2=O)c1`, the IC50 is > 500 µM.

Turning to `O=C1C(c2ccc(I)cc2)=CC(=O)c2c(O)cccc21`, the 50% inhibitory concentration (IC50) was > 500 µM.

In the case of `Cc1ccc(C2=CC(=O)c3c(O)cccc3C2=O)cc1`, the IC50 turned out to be 156 µM.

For `Cc1ccc(C)c(C2=CC(=O)c3ccccc3C2=O)c1`, the IC50 is 56.5 µM.

In the case of `Cc1ccc(O)c(C2=CC(=O)c3ccccc3C2=O)c1`, the concentration for half-maximal inhibition (IC50) was 99.2 µM.

`CC(C)(C)c1ccc(C2=CC(=O)c3ccccc3C2=O)cc1`: the half-maximal inhibitory concentration (IC50) was determined as 25.7 µM.

Regarding `O=C1C=C(c2cccc(I)c2)C(=O)c2ccccc21`, the IC50 amounted to 304 µM.
